Reference: PubChem BioAssay AID2060499 (Molecular Pharmacology Branch, DTP, NCI, 2025)
pIC50: −log10 of the molar value.

System: 777334-354-R2-J4-PDC tumor spheroids with HUVEC/MSC, viability
Experiment: Anticancer human tumor 777334-354-R2-J4-PDC patient-derived pancreatic adenocarcinoma cell line growth inhibition [GQUAD]
Details: for pIC50: curve of first compound; for viability, T/C: stronger effect = lower value
Method in brief: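 Multi-cell-type spheroids of tumor cells with HUVEC and mesenchymal stem cells, treated with drug combinations. Concentrations descend in half-log steps from near clinical Cmax, or from 10 microM where Cmax is unknown; viability read-out.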

[1] = second compound 0.0316 µM, first compound 0.0316 µM
[2] = second compound 0.0316 µM, first compound 0.1 µM
[3] = second compound 0.0316 µM, first compound 0.316 µM
[4] = second compound 0.0316 µM, first compound 1 µM
[5] = second compound 0.0316 µM, first compound 3.16 µM
[6] = second compound 0.0316 µM, first compound 10 µM
[7] = second compound 0.1 µM, first compound 0.0316 µM
[8] = second compound 0.1 µM, first compound 0.1 µM
[9] = second compound 0.1 µM, first compound 0.316 µM
[10] = second compound 0.1 µM, first compound 1 µM
[11] = second compound 0.1 µM, first compound 3.16 µM
[12] = second compound 0.1 µM, first compound 10 µM
[13] = second compound 0.316 µM, first compound 0.0316 µM
[14] = second compound 0.316 µM, first compound 0.1 µM
[15] = second compound 0.316 µM, first compound 0.316 µM
[16] = second compound 0.316 µM, first compound 1 µM
[17] = second compound 0.316 µM, first compound 3.16 µM
[18] = second compound 0.316 µM, first compound 10 µM
[19] = second compound 1 µM, first compound 0.0316 µM
[20] = second compound 1 µM, first compound 0.1 µM
[21] = second compound 1 µM, first compound 0.316 µM
[22] = second compound 1 µM, first compound 1 µM
[23] = second compound 1 µM, first compound 3.16 µM
[24] = second compound 1 µM, first compound 10 µM
[25] = second compound 3.16 µM, first compound 0.0316 µM
[26] = second compound 3.16 µM, first compound 0.1 µM
[27] = second compound 3.16 µM, first compound 0.316 µM
[28] = second compound 3.16 µM, first compound 1 µM
[29] = second compound 3.16 µM, first compound 3.16 µM
[30] = second compound 3.16 µM, first compound 10 µM
[31] = second compound 10 µM, first compound 0.0316 µM
[32] = second compound 10 µM, first compound 0.1 µM
[33] = second compound 10 µM, first compound 0.316 µM
[34] = second compound 10 µM, first compound 1 µM
[35] = second compound 10 µM, first compound 3.16 µM
[36] = second compound 10 µM, first compound 10 µM
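Also: spheroids exposed to compounds for 7 days before readout.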

CCCS(=O)(=O)Nc1ccc(F)c(C(=O)c2c[nH]c3ncc(-c4ccc(Cl)cc4)cc23)c1F + CN(C)c1ccc(Nc2c3ccc(NC(=O)CCN4CCCC4)cc3nc3cc(NC(=O)CCN4CCCC4)ccc23)cc1
pIC50 (second compound 0.0316 µM): 5.09 | pIC50 (second compound 0.1 µM): 5.07 | pIC50 (second compound 0.316 µM): 5.06 | pIC50 (second compound 1 µM): 5.08 | pIC50 (second compound 3.16 µM): 5.07 | pIC50 (second compound 10 µM): 5.19 | viability, T/C [1]: 93% | viability, T/C [2]: 97% | viability, T/C [3]: 115% | viability, T/C [4]: 115% | viability, T/C [5]: 116% | viability, T/C [6]: 37.6% | viability, T/C [7]: 92.5% | viability, T/C [8]: 105% | viability, T/C [9]: 127% | viability, T/C [10]: 128% | viability, T/C [11]: 151% | viability, T/C [12]: 37.6% | viability, T/C [13]: 101% | viability, T/C [14]: 98.5% | viability, T/C [15]: 130% | viability, T/C [16]: 117% | viability, T/C [17]: 152% | viability, T/C [18]: 40.5% | viability, T/C [19]: 92.4% | viability, T/C [20]: 98.6% | viability, T/C [21]: 107% | viability, T/C [22]: 124% | viability, T/C [23]: 137% | viability, T/C [24]: 39% | viability, T/C [25]: 81.6% | viability, T/C [26]: 107% | viability, T/C [27]: 97.6% | viability, T/C [28]: 122% | viability, T/C [29]: 131% | viability, T/C [30]: 39.8% | viability, T/C [31]: 88% | viability, T/C [32]: 87% | viability, T/C [33]: 87.9% | viability, T/C [34]: 93.6% | viability, T/C [35]: 81.1% | viability, T/C [36]: 30.1%

COc1ncnc(C2CC2)c1-c1ncc2cnn(Cc3ccc(-c4nc(C(F)(F)F)cn4C(C)C)cc3)c2n1 + CN(C)c1ccc(Nc2c3ccc(NC(=O)CCN4CCCC4)cc3nc3cc(NC(=O)CCN4CCCC4)ccc23)cc1
pIC50 (second compound 0.0316 µM): < 5.00 | pIC50 (second compound 0.1 µM): < 5.00 | pIC50 (second compound 0.316 µM): < 5.00 | pIC50 (second compound 1 µM): < 5.00 | pIC50 (second compound 3.16 µM): < 5.00 | pIC50 (second compound 10 µM): < 5.00 | viability, T/C [1]: 103% | viability, T/C [2]: 94.8% | viability, T/C [3]: 108% | viability, T/C [4]: 95.7% | viability, T/C [5]: 105% | viability, T/C [6]: 111% | viability, T/C [7]: 104% | viability, T/C [8]: 91.1% | viability, T/C [9]: 94.4% | viability, T/C [10]: 84.5% | viability, T/C [11]: 100% | viability, T/C [12]: 98.3% | viability, T/C [13]: 97.7% | viability, T/C [14]: 94.5% | viability, T/C [15]: 94% | viability, T/C [16]: 95% | viability, T/C [17]: 109% | viability, T/C [18]: 105% | viability, T/C [19]: 96.2% | viability, T/C [20]: 101% | viability, T/C [21]: 94.5% | viability, T/C [22]: 93.8% | viability, T/C [23]: 106% | viability, T/C [24]: 96.8% | viability, T/C [25]: 84.1% | viability, T/C [26]: 85.1% | viability, T/C [27]: 92.6% | viability, T/C [28]: 94.2% | viability, T/C [29]: 97.2% | viability, T/C [30]: 91.9% | viability, T/C [31]: 81.2% | viability, T/C [32]: 73.5% | viability, T/C [33]: 80.1% | viability, T/C [34]: 75.6% | viability, T/C [35]: 70.6% | viability, T/C [36]: 58.4%

Cc1[nH]c2ccccc2c1CCNCc1ccc(/C=C/C(=O)NO)cc1 + CN(C)c1ccc(Nc2c3ccc(NC(=O)CCN4CCCC4)cc3nc3cc(NC(=O)CCN4CCCC4)ccc23)cc1
pIC50 (second compound 0.0316 µM): 6.69 | pIC50 (second compound 0.1 µM): 6.73 | pIC50 (second compound 0.316 µM): 6.66 | pIC50 (second compound 1 µM): 6.67 | pIC50 (second compound 3.16 µM): 6.76 | pIC50 (second compound 10 µM): 6.98 | viability, T/C (second compound 0.0316 µM, first compound 0.000999 µM): 104% | viability, T/C (second compound 0.0316 µM, first compound 0.00316 µM): 83.1% | viability, T/C (second compound 0.0316 µM, first compound 0.00999 µM): 97.8% | viability, T/C [1]: 90.5% | viability, T/C (second compound 0.0316 µM, first compound 0.0999 µM): 75.8% | viability, T/C [3]: 33.4% | viability, T/C (second compound 0.1 µM, first compound 0.000999 µM): 108% | viability, T/C (second compound 0.1 µM, first compound 0.00316 µM): 84.8% | viability, T/C (second compound 0.1 µM, first compound 0.00999 µM): 103% | viability, T/C [7]: 86.2% | viability, T/C (second compound 0.1 µM, first compound 0.0999 µM): 73.2% | viability, T/C [9]: 30.8% | viability, T/C (second compound 0.316 µM, first compound 0.000999 µM): 92.3% | viability, T/C (second compound 0.316 µM, first compound 0.00316 µM): 88.4% | viability, T/C (second compound 0.316 µM, first compound 0.00999 µM): 99.5% | viability, T/C [13]: 88.9% | viability, T/C (second compound 0.316 µM, first compound 0.0999 µM): 79.6% | viability, T/C [15]: 36.4% | viability, T/C (second compound 1 µM, first compound 0.000999 µM): 84.8% | viability, T/C (second compound 1 µM, first compound 0.00316 µM): 86.9% | viability, T/C (second compound 1 µM, first compound 0.00999 µM): 88.3% | viability, T/C [19]: 79% | viability, T/C (second compound 1 µM, first compound 0.0999 µM): 71.9% | viability, T/C [21]: 38.9% | viability, T/C (second compound 3.16 µM, first compound 0.000999 µM): 90.6% | viability, T/C (second compound 3.16 µM, first compound 0.00316 µM): 86.9% | viability, T/C (second compound 3.16 µM, first compound 0.00999 µM): 89% | viability, T/C [25]: 79.5% | viability, T/C (second compound 3.16 µM, first compound 0.0999 µM): 66.1% | viability, T/C [27]: 33.5% | viability, T/C (second compound 10 µM, first compound 0.000999 µM): 77% | viability, T/C (second compound 10 µM, first compound 0.00316 µM): 80.1% | viability, T/C (second compound 10 µM, first compound 0.00999 µM): 80.6% | viability, T/C [31]: 70.4% | viability, T/C (second compound 10 µM, first compound 0.0999 µM): 51.2% | viability, T/C [33]: 26.4%
